In paper PMC12040169 (PLOS Biology, 2025):
“And” between values parts separate entries of the source, which are not always exact repeats. Equal values may be shown once.

Columns and labels:
[1] = tested on: HeLa; conditions: bulk resorufin, single well, 28.5 h, 10 µM, Bulk resorufin fluorescence
[2] = tested on: T1, C. trachomatis L2/434/Bu expressing GFP (CTL2-GFP); test: microbe, parasite or virus in culture; design: C. trachomatis total inclusion area by high-content imaging, normalised to DMSO; conditions: Chlamydia trachomatis, HeLa, 28.5 h; total inclusion area; read-out: % of control remaining
T1 construct: L2/434/Bu GFP intracellular growth in HeLa cells
Summary of the method: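 After bulk GFP and resorufin reads, fixed cells were Hoechst-stained and imaged to count chlamydial inclusions and host nuclei. Total inclusion area and number tracked bacterial growth, and nuclei number tracked host viability. MICs were derived, and 36,785 drug-like molecules were screened this way.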

[3] = in vitro; design: Viability of infected HeLa host cells, resazurin conversion, bulk resorufin fluorescence relative to DMSO; conditions: human, hela cells; bulk resorufin, mean of 2
[4] = in vitro; conditions: human, hela cells, % viability
[5] = tested on: T2, CTL2-GFP (C. trachomatis L2/434/Bu, GFP-expressing); test: microbe, parasite or virus in culture; design: Intracellular C. trachomatis growth in HeLa cells, bulk GFP fluorescence relative to DMSO; conditions: Chlamydia trachomatis, HeLa, 28.5 h; bulk GFP, mean of 2; read-out: % of control remaining
T2 construct: L2/434/Bu, GFP-expressing
Protocol: MICs were calculated as described above.

Compound | % viability [1] | activity at 1 µM [2] [%] | activity at 5 µM [2] [%] | activity at 10 µM [2] [%] | viability at 28.5 h, 1 µM [3] [%] | viability at 28.5 h, 5 µM [3] [%] | viability at 28.5 h, 10 µM [3] [%] | viability at 28.5 h, 10 µM [4] [%] | activity at 1 µM [5] [%] | activity at 5 µM [5] [%] | activity at 10 µM [5] [%]
CCN(CC)c1ccc2cc(/C(C)=N/O)c(=O)oc2c1 [CBK009063] | 108% and 84.7% | – | – | – | – | – | – | – | – | – | –
Cc1cn(C2CC(O)C(CO)O2)c(=S)[nH]c1=O (stereo not drawn) [CBK012339] | 112% and 90.8% | – | – | – | – | – | – | – | – | – | –
O=C(Nc1nc[nH]n1)NC1CCCCC1 [CBK017342] | 119% and 94.5% | – | – | – | – | – | – | – | – | – | –
CCCO/N=C\c1ccc(-n2cnnc2)cc1 [CBK018921] | 77.5% and 99.8% | – | – | – | – | – | – | – | – | – | –
CC1=CC(C)C(C(=O)O)C(C(=O)N2CCN(C)CC2)C1 (stereo not drawn) [CBK027311] | 102% | – | – | – | – | – | – | – | – | – | –
Brc1ccc(CSc2nc[nH]n2)cc1 [CBK027819] | 98.5% | – | – | – | – | – | – | – | – | – | –
COCCn1cnc2sc(C(=O)NCc3ccccc3OC)c(C)c2c1=O [CBK071862] | 95.1% and 64.7% | – | – | – | – | – | – | – | – | – | –
Clc1ccc(COc2nccnc2OC2CCN(CC3CC3)CC2)cc1Cl [CBK083123] | 104% | – | – | – | – | – | – | – | – | – | –
O=C(O)c1cc(S(=O)(=O)NCc2ccco2)c(Cl)cc1Cl [CBK113171] | 107% and 83.2% | – | – | – | – | – | – | – | – | – | –
Cc1cc(CC(=O)N2CCCC3(CCN(C(=O)c4ccoc4)C3)C2)on1 (stereo not drawn) [CBK131628] | 106% and 82.1% | – | – | – | – | – | – | – | – | – | –
COC(=O)c1ccc(-c2cc3ccccc3o2)nc1 [CBK149228] | 96.5% | – | – | – | – | – | – | – | – | – | –
COc1ccc(CCNC(=O)C2CCCCC2C(=O)O)cc1 (stereo not drawn) [CBK262636] | 86.3% and 110% | – | – | – | – | – | – | – | – | – | –
O=C(O)c1ccc(CNCc2c(F)cccc2Cl)cc1 [CBK269496C] | 111% | – | – | – | – | – | – | – | – | – | –
O=C(O)c1ccc(CNCc2c(F)cccc2Cl)cc1 [CBK269496] | 82.3% | – | – | – | – | – | – | – | – | – | –
O=C(O)c1cccc(S(=O)(=O)N2CCN(C(=O)c3ccccc3)CC2)c1 [CBK275920] | 113% and 91.5% and 99.3% | – | – | – | – | – | – | – | – | – | –
Cc1c(C(=O)Nc2ccc(Cl)cc2)sc2c1C(c1cccnc1)CC(=O)N2 (stereo not drawn) [CBK288233] | – | 100 | 56.2 | 44.9 | 101 | 98.8 | 97.1 | 87.1 | 99.5 | 55.5 | 83.6
Cc1cccc(Nc2nc(C)cc3n[nH]c(=O)n23)c1 [CBK288477] | – | 74.4 | 33.7 | 17.7 | 102 | 104 | 81.5 | 89.2 | 134 | 57.5 | 29.6
COc1ccc(C=CC(=O)Nc2sc3c(c2C(=O)O)CCCC3)cc1OC [CBK296103] | – | 117 | 69.8 | 22.5 | 91.1 | 87.4 | 89.7 | 117 | 118 | 85.9 | 27.4
CCCn1c(NC(=O)C(C)Oc2ccc(Cl)cc2Cl)nc2ccccc21 (stereo not drawn) [CBK296979] | – | 137 | 94.8 | 58.2 | 88 | 93.1 | 89.7 | 108 | 129 | 103 | 54.1
O=C(O)c1cn(C2CC2)c2cc(N3CCN(C(=O)Cc4ccsc4)CC3)c(F)cc2c1=O [CBK297142] | – | 114 | 17.9 | 12.9 | 90.6 | 93 | 90.7 | 88.9 | 137 | 28.4 | 17.7
Cc1cc(NS(=O)(=O)c2ccc(NC(=O)CCCOc3ccc(Cl)cc3Cl)cc2)no1 [CBK297145] | – | 125 | 84.3 | 56.5 | 85.1 | 93.5 | 89.4 | 103 | 128 | 62.6 | 39.3
CCN1CCN(c2cc3c(cc2F)c(=O)c(C(=O)NCCOC)cn3C2CC2)CC1 [CBK300529] | – | 24.3 | 3.14 | 0.623 | 88.9 | 93 | 88.7 | 94.2 | 36.3 | 5.5 | 6.24
CC(Cc1nc(-c2nccn2C)cs1)n1cc(Cl)cn1 (stereo not drawn) [CBK304114] | – | 97.2 | 15.4 | 7.1 | 108 | 100 | 105 | 90.1 | 79.3 | 21 | 7.42
OCCn1ncc2c(NCc3cccc(Cn4ccnc4)c3)ncnc21 [CBK304184] | – | 81 | 101 | 58.7 | 96.1 | 92 | 92.4 | 90.3 | 144 | 158 | 128
Fc1cc(Br)c(CNCc2ncc[nH]2)c(N2CCCCC2)c1F [CBK304243] | – | 105 | 30.4 | 7.47 | 96.3 | 88.7 | 89.7 | 99.2 | 128 | 39.3 | 16.8
COc1cc(OC)c(CCNC2CCCc3c2cnn3C)c(OC)c1 (stereo not drawn) [CBK304482] | – | 102 | 131 | 56.7 | 97.4 | 91.3 | 93.8 | 111 | 147 | 156 | 135
CN1CCOC(CNc2nc(-c3ccncc3)nc3c2CCC3)C1 (stereo not drawn) [CBK304890] | – | 46.1 | 45.8 | 25.1 | 90.5 | 92.8 | 99.5 | 87 | 141 | 112 | 126
CCCc1cc(C(=O)N2CCN(c3nccc(OC)n3)CC2)[nH]n1 [CBK304898] | – | 127 | 120 | 43.6 | 89.4 | 93.7 | 89.2 | 87 | 148 | 151 | 156
CC1CC(C)CN(Cc2csc(NC(=O)Cc3ccc(Cl)cc3)n2)C1 (stereo not drawn) [CBK306142] | – | 140 | 48.4 | 46.1 | 87.7 | 91.3 | 86 | 81.1 | 150 | 112 | 75.2
OCC1(CNc2ncc(F)c(N3CCCC3)n2)CCOCC1 [CBK306647] | – | 130 | 60.9 | 47.1 | 100 | 93.8 | 95.5 | 87.3 | 108 | 64.2 | 59
